Source: US10314819B2, “Solid state forms of Eluxadoline” (TEVA PHARMACEUTICALS INTERNATIONAL GMBH, priority 2015, dated 2019)
Where two headings read alike, the source gives them in different places.

How the values were obtained:
Assay type in all cases: physicochemical
[1] = Polymorph stability on storage at various relative humidity (PXRD)
Protocol: Sample after being powdered in a mortar and pestle is applied directly on a silicon plate holder. The X-ray powder diffraction pattern was measured with Philips X'Pert PRO X-ray powder diffractometer, equipped with Cu irradiation source=1.54184 Å(Ångström), X'Celerator (2.022° 2θ) detector. Scanning parameters: angle range: 3-40 deg., step size 0.0167, time per step 37 s, continuous scan.
(§1) The obtained amorphous form was stored at various conditions, and the PXRD was analyzed after 3 and 7 days:
The obtained pure amorphous form was stored at various conditions, and the PXRD was analyzed after 3 and 7 days:
(§2) The obtained form alpha was stored at various conditions, and the PXRD was analyzed after 3 and 8 days:
(§3) The obtained amorphous form was stored at various conditions of relative humidity, and the PXRD was obtained after 1M (Table 4):
(§4) The obtained amorphous form was stored at various conditions, and the PXRD was obtained after 2M (Table 5):
(§5) XRPD pattern is shown in FIG. 16; SEM image is shown in FIG. 17; DSC thermogram is shown in FIG. 21 and TGA thermogram is shown in FIG. 22. The obtained form alpha was stored at various conditions, and the PXRD was obtained after 8, 14, and 21 days (Table 6): […]

[2] = % weight loss / water content (TGA, KF) after storage at various relative humidity; conditions: for % weight loss/water cont. - after 1 M, TGA: TGA up to 190° C.
Protocol: as §1, §2, §3, §4, §5

[3] = Dissolution in 50 mM phosphate buffer pH = 7.4 at 37° C.; conditions: 50 mM phosphate buffer pH = 7.4, 37° C.
Protocol: Samples were prepared and analysed in duplicate. About 20 mg of each sample were weighed into 500 ml Erlenmeyer flask, 200 ml of 50 mM phosphate buffer pH=7.4, previously heated to 37° C. were added and flasks were shaken at 110 rpm for 60 minutes at 37±0.2° C. in an incubator shaker. 3 ml aliquots were taken at 5, 10, 20, 30, 45 and 60 min, filtered through 0.45 μm Chromafil Xtra RC 45/25 syringe filter and analysed by UV/VIS spectrometer (absorbance at 203 nm).
The measurement was performed using the following instruments: • pH/Ion meter PHM 240, MeterLab, Radiometer Analytical • Incubator shaker Innova 4080, New Brunswick Scientific, 19 mm diameter circular orbit • UV/VIS spectrometer Varian Cary 50 Bio, 1 mm quartz cell Results of Eluxadoline samples dissolution in 50 mM phosphate buffer pH=7.4 are summarized in Table 8 below: […]

[4] = Flow function, FT4 Powder Rheometer, Freeman shear test 9 kPa; conditions: PSD/μm 10/60/164
Protocol: The Flow function was determined by using FT4 Powder Rheometer, Freeman FT4 instrument, and standard Freeman shear test—9 kPa (using small cell 1 ml), according to method below:
1. Compact to 9 kPa for 60 s
2. Pre shear hold 7 kPa for 16 s
3. Shear test at 7 kPa (Shear at 18°/min for 10°, auto detected peak torque yes)
4. Pre shear hold 6 kPa for 16 s
5. Shear test at 6 kPa (Shear at 18°/min for 10°, auto detected peak torque yes)
6. Pre shear hold 5 kPa for 16 s
7. Shear test at 5 kPa (Shear at 18°/min for 10°, auto detected peak torque yes)
8. Pre shear hold 4 kPa for 16 s
9. Shear test at 4 kPa (Shear at 18°/min for 10°, auto detected peak torque yes)
10. Pre shear hold 3 kPa for 16 s
11. Shear test at 3 kPa (Shear at 18°/min for 10°, auto detected peak torque yes)

[5] = Specific surface area (SSA), BET nitrogen
Protocol: Specific Surface Area (SSA) measurements (Bet Nitrogen) were determined using a Micromeritics ASAP 2000, specific surface area analyzer. Samples were subjected to the BET nitrogen adsorption analysis to determine the specific surface of the samples.
Sample tube: 10 cc bulb with ½″ stem
Sample mass: Approximately ½ full cell
Sample preparation: Degassing with nitrogen
Outgassing conditions: 40° C. (30 min)
Isothermal collection point: 20 adsorption points, in the range 0-1 P/P0
Isothermal data analysis range: 5 point BET in the range 0.05-0.20 P/P0
Equilibration interval: 5 s
Equilibration time out: 600 s

[6] = Texture analysis / density at 0.2 MPa; conditions: 200 mg sample compressed in steel mould
Protocol: A simple and low sample consuming method for evaluation of the packing density of powders were obtained as compression profiles under low pressures using a die and a flat-faced punch fitted on a TA-XTplus Texture analyser (Stable Micro Systems Ltd., Godalming, UK). The small amount of 200 mg of sample is compressed in a steel mould (with the rate of displacement 0.03 mm/s). Also, a cyclic procedure (similar to tapping) was performed at maximal compressive displacement 0.5 mm, then retracting, relaxation for 15 s and then repeated compressive steps (altogether up to 20 steps).

[7] = Thermal stability, heating in a vacuum dryer at 50° C. and 100° C. (XRPD, HPLC); conditions: for XRPD / HPLC/Area % (start: 99.88): vacuum dryer
Protocol: Samples of Eluxadoline alpha (5 g) were subjected to heating in a vacuum dryer at 50° C. and 100° C., for different periods of time.

Structure (SMILES): COc1ccc(CN(C(=O)[C@@H](N)Cc2c(C)cc(C(N)=O)cc2C)[C@@H](C)c2nc(-c3ccccc3)c[nH]2)cc1C(=O)O [Example 20]
- PXRD results - after 1 M ([1]; 0% RH, 1 M): amorphous
- PXRD results - after 1 M ([1]; 20% RH, 1 M): amorphous
- PXRD results - after 1 M ([1]; 40% RH, 1 M): amorphous
- PXRD results - after 1 M ([1]; 60% RH, 1 M): amorphous
- PXRD results - after 1 M ([1]; 80% RH, 1 M): amorphous
- PXRD results - after 1 M ([1]; 100% RH, 1 M): amorphous
- PXRD results - after 1 M ([1]; As is): amorphous
- % weight loss/water cont. - after 1 M, TGA ([2]; 0% RH, 1 M): TGA-7.42%
- % weight loss/water cont. - after 1 M, TGA ([2]; 20% RH, 1 M): TGA-8.42%
- % weight loss/water cont. - after 1 M, TGA ([2]; 40% RH, 1 M): TGA-9.34%
- % weight loss/water cont. - after 1 M, TGA ([2]; 60% RH, 1 M): TGA-10.36%
- % weight loss/water cont. - after 1 M, TGA ([2]; 80% RH, 1 M): TGA-12.89%
- % weight loss/water cont. - after 1 M, TGA ([2]; 100% RH, 1 M): TGA-15.23%
- % weight loss/water cont. - after 1 M, TGA ([2]; As is): TGA-5.79%
- % dissolved ([3]; 5 min): 63.21%
- % dissolved ([3]; 10 min): 81.56%
- % dissolved ([3]; 20 min): 91.46%
- % dissolved ([3]; 30 min): 93.81%
- % dissolved ([3]; 45 min): 94.48%
- % dissolved ([3]; 60 min): 94.50%

Structure (SMILES): COc1ccc(CN(C(=O)[C@@H](N)Cc2c(C)cc(C(N)=O)cc2C)[C@@H](C)c2nc(-c3ccccc3)c[nH]2)cc1C(=O)O [Example 11, Eluxadoline]
- PXRD results after 7 days ([1]; 0% RH, 7 days): amorphous
- PXRD results after 7 days ([1]; 20% RH, 7 days): amorphous
- PXRD results after 7 days ([1]; 40% RH, 7 days): amorphous
- PXRD results after 7 days ([1]; 60% RH, 7 days): amorphous
- PXRD results after 7 days ([1]; 80% RH, 7 days): amorphous
- PXRD results after 7 days ([1]; 100% RH, 7 days): amorphous

Structure (SMILES): COc1ccc(CN(C(=O)[C@@H](N)Cc2c(C)cc(C(N)=O)cc2C)[C@@H](C)c2nc(-c3ccccc3)c[nH]2)cc1C(=O)O [Example 21]
- PXRD results - after 2 M ([1]; 0% RH, 2 M): amorphous
- PXRD results - after 2 M ([1]; 20% RH, 2 M): amorphous
- PXRD results - after 2 M ([1]; 40% RH, 2 M): amorphous
- PXRD results - after 2 M ([1]; 60% RH, 2 M): amorphous
- PXRD results - after 2 M ([1]; 80% RH, 2 M): amorphous
- PXRD results - after 2 M ([1]; 100% RH, 2 M): amorphous
- PXRD results - after 2 M ([1]; As is): amorphous
- % weight loss/water cont. after 2 M KF ([2]; 0% RH, 2 M): 8.56%
- % weight loss/water cont. after 2 M KF ([2]; 20% RH, 2 M): 9.17%
- % weight loss/water cont. after 2 M KF ([2]; 40% RH, 2 M): 10.50%
- % weight loss/water cont. after 2 M KF ([2]; 60% RH, 2 M): 11.93%
- % weight loss/water cont. after 2 M KF ([2]; 80% RH, 2 M): 14.15%
- % weight loss/water cont. after 2 M KF ([2]; 100% RH, 2 M): 14.54%
- % weight loss/water cont. after 2 M KF ([2]; As is): 4.42%
- Classification of powder flowability after Jenike [4]: Free-flowing (10 < FF)
- Flow Function, (FF) ([4]; shear test 9 kPa): 10.08
- SSA [5]: 1.243 m^2/g

Structure (SMILES): COc1ccc(CN(C(=O)[C@@H](N)Cc2c(C)cc(C(N)=O)cc2C)[C@@H](C)c2nc(-c3ccccc3)c[nH]2)cc1C(=O)O [amorphous Eluxadoline, Eluxadoline]
- changes of samples exposed to RH (stability of amorphous form) ([1]; RH 0-10% for a 7 day period): did not show any changes

Structure (SMILES): COc1ccc(CN(C(=O)[C@@H](N)Cc2c(C)cc(C(N)=O)cc2C)[C@@H](C)c2nc(-c3ccccc3)c[nH]2)cc1C(=O)O [Example 10, Eluxadoline]
- PXRD results - after 7 days ([1]; 0% RH, 7 days): amorphous
- PXRD results - after 7 days ([1]; 20% RH, 7 days): amorphous
- PXRD results - after 7 days ([1]; 40% RH, 7 days): amorphous
- PXRD results - after 7 days ([1]; 60% RH, 7 days): amorphous
- PXRD results - after 7 days ([1]; 80% RH, 7 days): amorphous
- PXRD results - after 7 days ([1]; 100% RH, 7 days): amorphous
- PXRD results - after 7 days ([1]; As is): amorphous
- % weight loss/water cont. - after 7 days, TGA ([2]; 0% RH, 7 days): TGA-7.96%
- % weight loss/water cont. - after 7 days, KF ([2]; 20% RH, 7 days): 9.01%
- % weight loss/water cont. - after 7 days, TGA ([2]; 20% RH, 7 days): 7.96%
- % weight loss/water cont. - after 7 days, KF ([2]; 40% RH, 7 days): 9.11%
- % weight loss/water cont. - after 7 days, TGA ([2]; 40% RH, 7 days): 8.15%
- % weight loss/water cont. - after 7 days, KF ([2]; 60% RH, 7 days): 9.91%
- % weight loss/water cont. - after 7 days, TGA ([2]; 60% RH, 7 days): 8.88%
- % weight loss/water cont. - after 7 days, KF ([2]; 80% RH, 7 days): 13.30%
- % weight loss/water cont. - after 7 days, TGA ([2]; 80% RH, 7 days): 11.88%
- % weight loss/water cont. - after 7 days, KF ([2]; 100% RH, 7 days): 15.69%
- % weight loss/water cont. - after 7 days, TGA ([2]; 100% RH, 7 days): 15.03%
- % weight loss/water cont. - after 7 days, TGA ([2]; As is): TGA-5.97%

Structure (SMILES): COc1ccc(CN(C(=O)[C@@H](N)Cc2c(C)cc(C(N)=O)cc2C)[C@@H](C)c2nc(-c3ccccc3)c[nH]2)cc1C(=O)O [Example 12, 5-(((S)-2-amino-3-(4-carbamoyl-2,6-dimethylphenyl)-N—((S)-1-(4-phenyl-1H-imidazol-2-yl)ethyl)propanamido)methyl)-2-methoxybenzoic acid]
- PXRD results after 8 days ([1]; 0% RH): alpha
- PXRD results after 8 days ([1]; 20% RH): alpha
- PXRD results after 8 days ([1]; 40% RH): alpha
- PXRD results after 8 days ([1]; 60% RH): alpha
- PXRD results after 8 days ([1]; 80% RH): alpha
- % weight loss after 8 days by TGA ([2]; as is, TGA up to 121° C.): TGA* = 1.29%

Structure (SMILES): COc1ccc(CN(C(=O)[C@@H](N)Cc2c(C)cc(C(N)=O)cc2C)[C@@H](C)c2nc(-c3ccccc3)c[nH]2)cc1C(=O)O [Eluxadoline alpha-lower particle size, Eluxadoline]
- Density at 0.2 MPa [6]: 0.5190 mg/mm^3

Structure (SMILES): COc1ccc(CN(C(=O)[C@@H](N)Cc2c(C)cc(C(N)=O)cc2C)[C@@H](C)c2nc(-c3ccccc3)c[nH]2)cc1C(=O)O [Eluxadoline alpha form, Eluxadoline]
- XRPD ([7]; 50 ° C., 1 h): alpha
- XRPD ([7]; 50 ° C., 2 h): alpha
- XRPD ([7]; 50 ° C., 3 h): alpha
- HPLC/Area % (start: 99.88) ([7]; 50 ° C., 3 h): 99.91 Area %
- XRPD ([7]; 100 ° C., 1 h): alpha
- XRPD ([7]; 100 ° C., 2 h): alpha
- XRPD ([7]; 100 ° C., 3 h): alpha
- HPLC/Area % (start: 99.88) ([7]; 100 ° C., 3 h): 99.91 Area %
- stability by XRPD and HPLC on heating ([7]; vacuum dryer at 50° C. and 100° C., different periods of time): stable
- SSA ([5]; listed as Eluxadoline form alpha): about 9.63 m^2/g
